Measurements published in PubChem BioAssay (NCI).
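Values below derive from 48-hour exposures of cells grown in 96-well plates, with endpoints linearly interpolated between the two concentrations bracketing the appropriate inhibition level. TGI: concentration producing complete growth inhibition.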

How the values were obtained:
Test in all cases: DTP human tumour cell line panel, 48 h
[1] = tested on: SR leukemia
[2] = tested on: RXF 393 renal
[3] = tested on: OVCAR-4 ovarian
[4] = tested on: M14 melanoma
[5] = tested on: LOX IMVI melanoma
[6] = tested on: SF-295 CNS
[7] = tested on: SN12C renal
[8] = tested on: DMS 273 small cell lung
[9] = tested on: MOLT-4 leukemia
[10] = tested on: LXFL 529 NSCLC
[11] = tested on: SK-MEL-2 melanoma
[12] = tested on: UACC-257 melanoma
[13] = tested on: ACHN renal
[14] = tested on: HCT-116 colon
[15] = tested on: UO-31 renal
[16] = tested on: HT29 colon
[17] = tested on: M19-MEL melanoma
[18] = tested on: MALME-3M melanoma
[19] = tested on: NCI-H226 lung
[20] = tested on: KM20L2 colon
[21] = tested on: HOP-92 NSCLC
[22] = tested on: OVCAR-8 ovarian
[23] = tested on: 786-0 renal
[24] = tested on: UACC-62 melanoma
[25] = tested on: SNB-19 CNS
[26] = tested on: IGROV1 ovarian
[27] = tested on: COLO 205 colon
[28] = tested on: NCI-H23 lung
[29] = tested on: HL-60(TB) leukemia
[30] = tested on: DLD-1 colon
[31] = tested on: HOP-62 NSCLC
[32] = tested on: HOP-18 NSCLC
[33] = tested on: SK-MEL-5 melanoma
[34] = tested on: NCI-H460 lung
[35] = tested on: OVCAR-3 ovarian
[36] = tested on: HCC-2998 colon
[37] = tested on: XF 498 CNS
[38] = tested on: SW-620 colon
[39] = tested on: NCI-H522 lung
[40] = tested on: A549 NSCLC
[41] = tested on: SK-MEL-28 melanoma
[42] = tested on: SNB-75 CNS
[43] = tested on: CAKI-1 renal
[44] = tested on: KM12 colon
[45] = tested on: CCRF-CEM leukemia
[46] = tested on: SF-268 CNS
[47] = tested on: HCT-15 colon
[48] = tested on: EKVX NSCLC
[49] = tested on: DMS 114 small cell lung
[50] = tested on: SK-OV-3 ovarian
[51] = tested on: TK-10 renal
[52] = tested on: SF-539 CNS

Measured: TGI

Cc1cc(Cl)ccc1NC(=O)C(=O)Cc1nc2ccc(C(=O)c3ccccc3)cc2[nH]c1=O
> 100 µM: [1] | [2] | [3] | [4] | [5] | [6] | [7] | [8] | [9] | [10] | [11] | [12] | [13] | [14] | [15] | [16] | [17] | [18] | [19] | [20] | [21] | [22] | [23] | [24] | [25] | [26] | [27] | [28] | [29] | [30] | [31] | [32] | [33] | [34] | [35] | [36] | [37] | [38] | [39] | [40] | [41] | [42] | [43] | [44] | [45] | [46] | [47] | [48] | [49] | [50] | [51] | [52]
